Laboratory results: BigSolDB 2.1

CC(C)C[C@H](NC(=O)OCC1c2ccccc2-c2ccccc21)C(=O)O
solubility (mole fraction)
Settings	in acetone	in acetonitrile	in ethanol	in ethyl acetate	in isopropanol	in methanol	in methyl acetate	in n-butanol	in n-propanol
283.15 K	0.0724	0.00333	0.0256	0.0468	0.0166	0.0288	0.0246	0.0198	0.0218
288.15 K	0.0773	0.00382	0.0284	0.0496	0.0185	0.033	0.0279	0.0216	0.0245
293.15 K	0.0838	0.0047	0.0324	0.0536	0.0209	0.0384	0.0318	0.0258	0.0278
298.15 K	0.0927	0.0055	0.0379	0.0607	0.0272	0.0455	0.0372	0.0295	0.0317
303.15 K	0.101	0.00689	0.0443	0.0692	0.0352	0.0543	0.0428	0.0354	0.0372
308.15 K	0.108	0.00832	0.0522	0.0782	0.0441	0.0621	0.0487	0.0456	0.0464
313.15 K	0.117	0.0104	0.0614	0.0862	0.0551	0.0771	0.0554	0.0565	0.0574
318.15 K	0.131	0.0126	0.0716	0.0961	0.0687	0.106	0.063	0.0687	0.0691
323.15 K	0.142	0.0166	0.0854	0.106	0.0844	0.137	0.0711	0.086	0.0853
